# Values quoted from earlier work in patent publication US20220289705A1, “PROCESS FOR THE PREPARATION OF RIDINILAZOLE AND CRYSTALLINE FORMS THEREOF” (Summit (Oxford) Limited, priority 2019, published 2022).
# Tested on: Clostridioides difficile
# Settings: Phase 2 clinical trial; CDI recurrence
smiles,measurement,value
CN[C@H](CC(C)C)C(=O)N[C@H]1C(=O)N[C@@H](CC(N)=O)C(=O)N[C@H]2C(=O)N[C@H]3C(=O)N[C@H](C(=O)N[C@H](C(=O)O)c4cc(O)cc(O)c4-c4cc3ccc4O)[C@H](O)c3ccc(c(Cl)c3)Oc3cc2cc(c3O[C@@H]2O[C@H](CO)[C@@H](O)[C@H](O)[C@H]2O[C@H]2C[C@](C)(N)[C@H](O)[C@H](C)O2)Oc2ccc(cc2Cl)[C@H]1O [vancomycin],rates of recurrent disease,34.8%
"c1cc(-c2nc3cc(-c4ccc5[nH]c(-c6ccncc6)nc5c4)ccc3[nH]2)ccn1 [ridinilazole, 2,2′-di(pyridin-4-yl)-1H,1′H-5,5′-bibenzo[d]imidazole]",rates of recurrent disease,14.3%
